Laboratory results from US20260022098A1, “BULLEYACONITINE A DERIVATIVE WITH ANALGESIC ACTIVITY, AND PREPARATION METHOD AND APPLICATION THEREOF” (priority 2023, published 2026).
Like-named read-outs stand apart in the source and are kept apart here. Marks after values point to notes of the source that are not given here.

Experiments:
Kunming mice [1] = assay: Acute toxicity / median lethal dose (LD50) determination, subcutaneous injection; type: in vivo; set-up: key to Acute toxicity: if death occurred, (+) represented as positive; if no death occurred, (−) represented as negative; conditions: mice administered 20 mg/kg subcutaneously, presence of death within 24 h
Procedure: (§1) The experimental animals were Kunming mice (male:female=1:1), weighed 22+2 g, which were provided by Chengdu dossy experimental animals Co., ltd., China. The mice were kept in the animal room of the School of Life Science and Engineering, Southwest Jiaotong University, where the animal room was set at a temperature of 23±2° C., a humidity of […] and a photoperiod of 16:8 h (L:D). Before the experiment, the mice were freely fed for 2-3 days with water and feed to adapt to the new environment. Then, the mice were treated by water and food fasting for 12 h. 10 animals were allocated to each group to ensure that there are at least 6 sets of valid data in each group. The animal experiments were carried out in strict accordance with the national regulations on the management of experimental animals.
(§2) The compounds prepared in the examples provided herein (test sample set) and bulleyaconitine A (positive control set) were all dissolved with 0.1 mol/L HCl according to a molar ratio of 1:1, and then diluted with physiological saline to a concentration to be determined. Blank control was physiological saline containing 0.1 mol/L HCl. The animals in the control groups were subjected to the same treatment as those in experimental groups except that samples to be test were replaced with physiological saline.
(2) Median Lethal Dose (LD50) Determination
The sample to be tested was dissolved with 0.1 mol/L HCl according to the amount of the substance ratio of 1:1, and diluted with physiological saline according to the required concentration. 10 mice in each group were randomly selected, half of which were male and half of which were female, and were placed in independent cages. Each mouse was injected subcutaneously with different sample solutions to be tested according to a dose of 0.1 mL/10 g body weight. In the preliminary toxicity experiment, the measured concentration was 20 mg/kg, and then based on the survival rate of the experimental animals in the preliminary experiment, the sample to be tested was set to at least 5 groups with different concentration dose according to the proportional series. The survival rate of mice within 24 h was recorded. The obtained dose-survival rate data was input into the SPSS software (version 17.2), and the LD50 of the sample was calculated according to the Probit regression method.

RAW 264.7 cells = assay: MTT assay, viability of RAW 264.7 cells; type: cell-based; conditions: compound diluted to 30 mol/L (so in the source), 12 h
Procedure: The effect of the compound to be tested on viability of RAW 264.7 cells at a concentration of […] was assessed through MTT assay (Methylthiazolyldiphenyl-tetrazolium bromide assay), and the inhibition on NO release in the inflammatory response of LPS-induced RAW 264.7 cells at 30 µM was determined through Griess method. Specific methods were described as follows.
An MTT solution (5 mg/mL) was prepared with a PBS buffer, filter-sterilized through a 0.22 μm filter membrane, and stored protected from light at low temperature. Each compound was dissolved in DMSO to prepare a 50 mmol/L stock solution, and stored from light at low (frozen) temperature. The stock solution was diluted to 30 mol/L with DMEM (Dulbecco's modified Eagle's medium) containing 10% FBS (fetal bovine serum). RAW264.7 cells beyond third passage were added to a culture medium and gently pipetted to detach, forming a cell suspension. 10 μL of the cell suspension was applied onto a hemocytometer slide for counting, and cells were seeded into 96-well plates at a density of 6×10^3 cells per well with 100 μL of the cell suspension per well. After incubated at 37° C. with 5% CO2 for 24 h, supernatant was removed. A zero-adjustment group (CO group) received 100 μL of medium per well, the blank group (CK group) received 100 μL of DMSO (1/1000 dilution) per well, and the experimental groups received 100 μL of the test samples per well. After 12 h, supernatant was removed, and […] of MTT solution was added into each well at 120 μL per well. After incubated in COz at a constant temperature for 4 h, supernatant was removed, and DMSO was added into each well by 150 μL per well. The mixture was shaken at 50 r/min for 10 min and subjected to an absorbance test at 492 nm. Relative cell viability (x) was calculated through a formula as follows: relative cell viability (%)=(ODTest−ODCO)/(ODCK−ODCO)×100%.

Kunming mice [2] = assay: Analgesic activity by acetic acid-induced writhing method (writhing inhibition rate, ED50); type: in vivo; conditions: Mus musculus, sc, read-out: Analgesia rate (%) ± SEM
Procedure: as §1, §2
(1) Determination of Analgesic Activity Through an Acetic Acid-Induced Writhing Method
10 mice were randomly selected, male:female=1:1, were placed in independent cages. Each mouse was injected subcutaneously with the sample solution mentioned above at a dose of 0.1 mL/10 g body weight. After 15 min, a 0.7% acetic acid solution was intraperitoneally injected. A number of writhing reactions in each mouse within 15 minutes was recorded. The group that the mice were injected with physiological saline subcutaneously was the blank group; the group that the mice were injected with the sample to be tested was the experimental group; and the group that the mice were injected with bulleyaconitine A was the positive group. The analgesic activity was represented by a percentage of the reduced number of writhing compared to the blank group (writhing inhibition rate), which were specifically as follows: writhing inhibition rate (analgesic activity)=(average number of writhing times in the blank group-average number of writhing times in the experimental group)/average number of writhing times in the blank group×100%.
Median Effective Dose (ED50) Determination
The sample to be tested was dissolved with 0.1 mol/L HCl according to the amount of the substance ratio of 1:1, and diluted with physiological saline according to the proportional series to obtain at least 5 groups with different dose concentrations. The writhing inhibition rate of each dose group was tested according to the acetic acid-induced writhing method mentioned above. The obtained dose-writhing inhibition data was entered into the statistical product and service solutions (SPSS) software (version 17.2), and the ED50 of the sample to be tested was calculated through the Probit regression method.

[3] = dosing concentration 0.05 mg/kg, subcutaneous, acetic acid-induced writhing, mice

Compound | Acute toxicity (Kunming mice [1]) | RAW cell viability (RAW 264.7 cells) | inhibition in vivo at 0.05 mg/kg (Kunming mice [2]; [3]) | inhibition in vivo at 0.05 mg/kg (Kunming mice [2]) | inhibition in vivo at 0.5 mg/kg (Kunming mice [2]; dosing concentration 0.5 mg/kg, subcutaneous, acetic acid-induced writhing, mice)
CCO[C@]12C[C@H](OC)[C@@]3(OC(=O)c4cccnc4)CC(C1[C@H]3OC(=O)c1ccc(OC)cc1)[C@]13C4[C@@H](OC)C2[C@H]1N(CC)C[C@]4(COC)CC[C@@H]3OC (stereo partly drawn) [Compound 28] | − | 83.03 ± 4.69**^ % | 36.1 ± 2.1% |  | 
CCN1C[C@]2(COC)CC[C@H](OC)[C@@]34C5C[C@]6(OC(=O)c7ccc(Br)cc7)[C@@H](OC)C[C@@](OC(C)=O)(C5[C@H]6OC(=O)c5ccc(OC)cc5)C([C@H](OC)C23)[C@@H]14 (stereo partly drawn) [Compound 92] | − |  |  | 4.12 ± 1.7% | 
CCO[C@]12C[C@H](OC)[C@@]3(OC(=O)C4CCCCC4)CC(C1[C@H]3OC(=O)c1ccc(OC)cc1)[C@]13C4[C@@H](OC)C2[C@H]1N(CC)C[C@]4(COC)CC[C@@H]3OC (stereo partly drawn) [Compound 14] | − | 13.36 ± 0.9***^ % | 40.3 ± 1.7% |  | 44.4 ± 2.1%
CCO[C@]12C[C@H](OC)[C@@]3(O)CC(C1[C@H]3OC(=O)c1ccc(OC)cc1)[C@]13C4[C@@H](OC)C2[C@H]1N(CC)C[C@]4(COC)CC[C@@H]3OC (stereo partly drawn) [Compound 2] | + |  |  | 41.1 ± 1.8% | 
CCCC(=O)O[C@@H]1C2C3C[C@]1(OC(=O)CCC)[C@@H](OC)C[C@]2(OCC)C1[C@H](OC)C2[C@@]4(COC)CC[C@H](OC)[C@@]32[C@@H]1N(CC)C4 (stereo partly drawn) [Compound 77] | − |  |  | 34.2 ± 1.8% | 
CCO[C@]12C[C@H](OC)[C@@]3(OC(=O)c4cccc(Br)c4)CC(C1[C@H]3OC(=O)c1cccc(Br)c1)[C@]13C4[C@@H](OC)C2[C@H]1N(CC)C[C@]4(COC)CC[C@@H]3OC (stereo partly drawn) [Compound 70] | − |  |  | 5.83 ± 1.7% | 
CCO[C@]12C[C@H](OC)[C@@]3(OC(=O)c4ccc(OC(F)(F)F)cc4)CC(C1[C@H]3OC(=O)c1ccc(OC(F)(F)F)cc1)[C@]13C4[C@@H](OC)C2[C@H]1N(CC)C[C@]4(COC)CC[C@@H]3OC (stereo partly drawn) [Compound 94] | − |  |  | 0% | 
CCO[C@]12C[C@H](OC)[C@@]3(OC(=O)c4ccc(C(F)(F)F)cc4)CC(C1[C@H]3OC(=O)c1ccc(C(F)(F)F)cc1)[C@]13C4[C@@H](OC)C2[C@H]1N(CC)C[C@]4(COC)CC[C@@H]3OC (stereo partly drawn) [Compound 46] | − |  |  | 16.7 ± 2.6% | 
CCN1C[C@]2(COC)CC[C@H](OC)[C@@]34C5C[C@]6(OC(=O)c7ccc(OC)cc7)[C@@H](OC)C[C@@](OC(C)=O)(C5[C@H]6OC(=O)c5ccc(OC)cc5)C([C@H](OC)C23)[C@@H]14 (stereo partly drawn) [Compound 9] | − |  |  | 33.5 ± 1.9% | 
CCN1C[C@@]2(COC)C3[C@@H](OC)C4[C@@H]1[C@@]3(C1C[C@]3(O)[C@@H](OC)C[C@@]4(OC)C1[C@H]3O)[C@@H](OC)C[C@H]2O (stereo partly drawn) [Compound 3] | − |  |  | 9.78 ± 1.9% | 
CCO[C@]12C[C@H](OC)[C@@]3(OC(=O)c4cccc(C#N)c4)CC(C1[C@H]3OC(=O)c1cccc(C#N)c1)[C@]13C4[C@@H](OC)C2[C@H]1N(CC)C[C@]4(COC)CC[C@@H]3OC (stereo partly drawn) [Compound 95] | − |  |  | 23.8 ± 1.1% | 
CCO[C@]12C[C@H](OC)[C@@]3(OC(=O)Cc4cccs4)CC(C1[C@H]3OC(=O)Cc1cccs1)[C@]13C4[C@@H](OC)C2[C@H]1N(CC)C[C@]4(COC)CC[C@@H]3OC (stereo partly drawn) [Compound 93] | − |  |  | 10.5 ± 2.3% | 
CCO[C@]12C[C@H](OC)[C@@]3(OC(=O)c4cccc(F)c4)CC(C1[C@H]3OC(=O)c1cccc(F)c1)[C@]13C4[C@@H](OC)C2[C@H]1N(CC)C[C@]4(COC)CC[C@@H]3OC (stereo partly drawn) [Compound 72] | − |  |  | 24.7 ± 2% | 
CCO[C@]12C[C@H](OC)[C@@]3(OC(=O)c4ccccc4Cl)CC(C1[C@H]3OC(=O)c1ccccc1Cl)[C@]13C4[C@@H](OC)C2[C@H]1N(CC)C[C@]4(COC)CC[C@@H]3OC (stereo partly drawn) [Compound 68] | − |  |  | 24.6 ± 1.7% | 
CCN1C[C@]2(COC)CC[C@H](OC)[C@@]34C5C[C@]6(OC(=O)c7cccs7)[C@@H](OC)C[C@@](OC(C)=O)(C5[C@H]6OC(=O)c5ccc(OC)cc5)C([C@H](OC)C23)[C@@H]14 (stereo partly drawn) [Compound 21] | − |  |  | 0% | 
CCN1C[C@]2(COC)CC[C@H](OC)[C@@]34C5C[C@]6(OC(=O)C7CCOCC7)[C@@H](OC)C[C@@](OC(C)=O)(C5[C@H]6OC(=O)c5ccc(OC)cc5)C([C@H](OC)C23)[C@@H]14 (stereo partly drawn) [Compound 25] | − |  |  | 23 ± 0.8% | 
CCO[C@]12C[C@H](OC)[C@@]3(OC(=O)c4cccc(Cl)c4)CC(C1[C@H]3OC(=O)c1cccc(Cl)c1)[C@]13C4[C@@H](OC)C2[C@H]1N(CC)C[C@]4(COC)CC[C@@H]3OC (stereo partly drawn) [Compound 71] | − |  |  | 4.11 ± 2% | 
CCO[C@]12C[C@H](OC)[C@@]3(OC(=O)c4ccc(Br)cc4)CC(C1[C@H]3OC(=O)c1ccc(Br)cc1)[C@]13C4[C@@H](OC)C2[C@H]1N(CC)C[C@]4(COC)CC[C@@H]3OC (stereo partly drawn) [Compound 64] | − |  |  | 22.4 ± 1.4% | 
CCO[C@]12C[C@H](OC)[C@@]3(OC(=O)c4ccccc4Br)CC(C1[C@H]3OC(=O)c1ccccc1Br)[C@]13C4[C@@H](OC)C2[C@H]1N(CC)C[C@]4(COC)CC[C@@H]3OC (stereo partly drawn) [Compound 67] | − |  |  | 17.8 ± 1.9% | 
CCN1C[C@]2(COC)CC[C@H](OC)[C@@]34C5C[C@]6(OC(=O)c7ccco7)[C@@H](OC)C[C@@](OC)(C5[C@H]6OC(=O)c5ccco5)C([C@H](OC)C23)[C@@H]14 (stereo partly drawn) [Compound 32] | − |  |  | 37.3 ± 1.4% | 
C/C=C/C(=O)O[C@]12CC3C([C@H]1OC(=O)c1ccc(OC)cc1)[C@](OCC)(C[C@@H]2OC)C1[C@H](OC)C2[C@@]4(COC)CC[C@H](OC)[C@@]32[C@@H]1N(CC)C4 (stereo partly drawn) [Compound 86] | − |  |  | 22.8 ± 1.8% | 
